Source: BindingDB's records for doi:10.1016/0006-2952(93)90073-6 (Janssen Research Foundation, 1993)

Biological target: T1, 5-hydroxytryptamine receptor 1A (Homo sapiens, UniProt P08908)
T1 sequence (P08908 whole entry): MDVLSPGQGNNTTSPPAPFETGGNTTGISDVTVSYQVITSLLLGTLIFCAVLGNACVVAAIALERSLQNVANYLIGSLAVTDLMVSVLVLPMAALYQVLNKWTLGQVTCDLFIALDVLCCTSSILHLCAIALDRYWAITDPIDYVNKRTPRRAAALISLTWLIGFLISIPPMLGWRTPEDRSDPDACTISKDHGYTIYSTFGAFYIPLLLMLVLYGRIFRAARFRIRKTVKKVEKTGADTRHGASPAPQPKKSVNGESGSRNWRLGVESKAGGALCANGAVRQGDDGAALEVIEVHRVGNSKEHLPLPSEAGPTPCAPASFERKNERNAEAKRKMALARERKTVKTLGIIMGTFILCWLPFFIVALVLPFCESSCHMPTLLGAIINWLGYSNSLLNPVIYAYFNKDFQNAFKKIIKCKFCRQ

| SMILES | Ki |
| --- | --- |
| Cn1cc(C(F)(F)F)nc1-c1ccc(OCC(O)CNCCOc2ccc(O)c(C(N)=O)c2)cc1 (configuration not stated) | 7360 nM |
| OC(CNCC(O)C1CCc2cc(F)ccc2O1)C1CCc2cc(F)ccc2O1 (configuration not stated) [CAS_99200-09-6] | 25.8 nM |
| CN1C[C@@H](NS(=O)(=O)N(C)C)C[C@@H]2c3cccc4c3c(cn4C)C[C@H]21 [MESULERGINE] | 197 nM |
| O=c1ccc2[nH]cc(C3=CCNCC3)c2[nH]1 [CAS_127792-75-0] | 3750 nM |
| Cc1nc2c(C)cccn2c(=O)c1CCN1CCC(c2noc3cc(F)ccc23)CC1 [CAS_129029-23-8] | 13.9 nM |
| COc1ccc(CN(CCN(C)C)c2ccccn2)cc1 | > 10000 nM |
| CCN1CCCC1CNC(=O)c1cc(S(N)(=O)=O)ccc1OC (configuration not stated) [N-[(1-ethylpyrrolidin-2-yl)methyl]-2-methoxy-5-sulfamoylbenzamide] | > 10000 nM |
